Experimental findings from ChEMBL document CHEMBL1933022, “Synthetic studies of bi-fluorescence-labeled maltooligosaccharides as substrates for α-amylase on the basis of fluorescence resonance energy transfer (FRET)” (Bioorg Med Chem, 2012) are described below.

Molecules are shown by their SMILES. Active and inactive are the calls of the source. The calls are words filed in the database; no cut-off is given here.

In this experiment the target is T1, Alpha-amylase 1A (Homo sapiens) (UniProt P0DUB6).
T1 sequence (whole entry): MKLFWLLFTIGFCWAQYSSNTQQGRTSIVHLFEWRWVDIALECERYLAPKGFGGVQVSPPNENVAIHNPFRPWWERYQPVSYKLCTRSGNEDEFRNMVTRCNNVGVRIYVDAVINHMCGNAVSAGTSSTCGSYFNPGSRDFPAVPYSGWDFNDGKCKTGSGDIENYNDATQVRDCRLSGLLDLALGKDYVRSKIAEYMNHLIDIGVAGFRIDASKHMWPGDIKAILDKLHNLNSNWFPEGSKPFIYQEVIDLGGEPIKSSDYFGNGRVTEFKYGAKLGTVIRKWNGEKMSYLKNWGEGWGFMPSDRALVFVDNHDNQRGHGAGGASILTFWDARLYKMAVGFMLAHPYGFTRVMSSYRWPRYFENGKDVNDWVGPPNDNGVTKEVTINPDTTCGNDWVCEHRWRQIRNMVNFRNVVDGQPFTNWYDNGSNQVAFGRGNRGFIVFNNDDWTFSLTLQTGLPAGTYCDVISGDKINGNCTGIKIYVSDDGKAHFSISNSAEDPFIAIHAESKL
Kind of experiment: Activity of human saliva alpha-amylase assessed as decrease in fluorescence intensity measured for every 3 mins for 30 mins by FRET analysis.
Turning to `CN(C)c1cccc2c(S(=O)(=O)NCCSCCCCCS[C@@H]3O[C@H](CO)[C@@H](O[C@H]4O[C@H](CO)[C@@H](O[C@H]5O[C@H](CO)[C@@H](O[C@H]6O[C@H](CO)[C@@H](O[C@H]7O[C@H](COCc8ccc9ccccc9c8)[C@@H](O)[C@H](O)[C@H]7O)[C@H](O)[C@H]6O)[C@H](O)[C@H]5O)[C@H](O)[C@H]4O)[C@H](O)[C@H]3O)cccc12`, the result was Active. The value for `CN(C)c1cccc2c(S(=O)(=O)NCCSCCCCCS[C@@H]3O[C@H](CO)[C@@H](O[C@H]4O[C@H](CO)[C@@H](O[C@H]5O[C@H](CO)[C@@H](O[C@H]6O[C@H](CO)[C@@H](O[C@H]7O[C@H](CO)[C@@H](O[C@H]8O[C@H](CO)[C@@H](O[C@H]9O[C@H](COCc%10ccc%11ccccc%11c%10)[C@@H](O)[C@H](O)[C@H]9O)[C@H](O)[C@H]8O)[C@H](O)[C@H]7O)[C@H](O)[C@H]6O)[C@H](O)[C@H]5O)[C@H](O)[C@H]4O)[C@H](O)[C@H]3O)cccc12` was “Active”; that for `CN(C)c1cccc2c(S(=O)(=O)NCCSCCCCCS[C@@H]3O[C@H](CO)[C@@H](O[C@H]4O[C@H](CO)[C@@H](O[C@H]5O[C@H](CO)[C@@H](O[C@H]6O[C@H](CO)[C@@H](O[C@H]7O[C@H](CO)[C@@H](O[C@H]8O[C@H](COCc9ccc%10ccccc%10c9)[C@@H](O)[C@H](O)[C@H]8O)[C@H](O)[C@H]7O)[C@H](O)[C@H]6O)[C@H](O)[C@H]5O)[C@H](O)[C@H]4O)[C@H](O)[C@H]3O)cccc12` was “Active”; that for `CN(C)c1cccc2c(S(=O)(=O)NCCSCCCCCS[C@@H]3O[C@H](CO)[C@@H](O[C@H]4O[C@H](CO)[C@@H](O[C@H]5O[C@H](CO)[C@@H](O[C@H]6O[C@H](COCc7ccc8ccccc8c7)[C@@H](O)[C@H](O)[C@H]6O)[C@H](O)[C@H]5O)[C@H](O)[C@H]4O)[C@H](O)[C@H]3O)cccc12` was “Active”. The value for `CN(C)c1cccc2c(S(=O)(=O)NCCSCCCCCS[C@@H]3O[C@H](CO)[C@@H](O[C@H]4O[C@H](CO)[C@@H](O[C@H]5O[C@H](COCc6ccc7ccccc7c6)[C@@H](O)[C@H](O)[C@H]5O)[C@H](O)[C@H]4O)[C@H](O)[C@H]3O)cccc12` was “inactive”.

Turning to `CN(C)c1cccc2c(S(=O)(=O)NCCSCCCCCS[C@@H]3O[C@H](CO)[C@@H](O[C@H]4O[C@H](COCc5ccc6ccccc6c5)[C@@H](O)[C@H](O)[C@H]4O)[C@H](O)[C@H]3O)cccc12`, the outcome was inactive.
